The values that follow come from US10239887B2, “Positive allosteric modulators of the muscarinic acetylcholine receptor M4” (Vanderbilt University, priority 2016, dated 2019).

Where a name gives a salt, the structure may show the parent alone. Read-outs that look alike come from different tables or passages of the source.

A word on the EC50: it is the concentration that produces a half-maximal response. For orientation: Emax means the maximal effect, on the per cent scale that the assay sets.

This assay addresses T1, human mAChR M4 (Homo sapiens, UniProt P08173).
T1 sequence (P08173 1-479): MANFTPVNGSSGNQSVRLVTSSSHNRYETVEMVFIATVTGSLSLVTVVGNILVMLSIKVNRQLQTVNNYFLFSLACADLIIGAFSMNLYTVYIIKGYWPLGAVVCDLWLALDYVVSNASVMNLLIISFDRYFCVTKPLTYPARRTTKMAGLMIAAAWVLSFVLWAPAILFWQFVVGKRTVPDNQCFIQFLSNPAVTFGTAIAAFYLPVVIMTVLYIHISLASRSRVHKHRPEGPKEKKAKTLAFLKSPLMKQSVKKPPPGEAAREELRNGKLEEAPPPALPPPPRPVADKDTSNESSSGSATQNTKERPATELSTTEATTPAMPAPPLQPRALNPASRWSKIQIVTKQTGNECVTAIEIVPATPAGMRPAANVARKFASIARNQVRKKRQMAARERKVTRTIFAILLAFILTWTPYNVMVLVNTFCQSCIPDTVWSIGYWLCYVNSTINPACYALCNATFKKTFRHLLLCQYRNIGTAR
Kind of assay: mAChR M4 cell-based functional assay (calcium flux), human M4. To be noted: for EC50: Human M4 EC50 (nM), calcium flux, PAM activity with EC20 acetylcholine. A general note: Calcium flux is commonly read through the fluorescence of an indicator in the cells.

Where [1] appears, read: Table 10, % ACh maximum at 30 μM.

Take `Cc1nnc2sc3c(N4CC(C)(N)C4)ncnc3c2c1C` [Compound 98, 1-(3,4-dimethylpyrimido [4′,5′:4,5]thieno[2,3-c]pyridazin-8-yl)-3-methyl-azetidin-3-amine dihydrochloride]: under “Table 10”, the EC50 was 2390 nM. Also, under setting [1], the Emax was 50.1%.

In the case of `Cc1nnc2sc3c(N4CC[C@@H](N)C4)ncnc3c2c1C` [Compound 99, (3R)-1-(3,4-dimethylpyrimido [4′,5′:4,5]thieno[2,3-c]pyridazin-8-yl)pyrrolidin-3-amine dihydrochloride], the EC50 (Table 10) stood at 1040 nM. Moreover, the Emax under setting [1] was found to be 54%. As to `Cc1nnc2sc3c(NC(C)c4ccc(C(C)(C)O)cc4)ncnc3c2c1C` (stereo not drawn) [Compound 100, 2-[4-[1-[(3,4-dimethylpyrimido [4′,5′:4,5]thieno[2,3-c]pyridazin-8-yl)amino]ethyl]phenyl]propan-2-ol], under “Table 10”, the EC50 turned out to be 7720 nM. The Emax under setting [1] is 52.2%. Turning to `Cc1nnc2sc3c(NC(C)c4ccc(C5(O)CCC5)cc4)ncnc3c2c1C` (stereo not drawn) [Compound 101, 1-[4-[1-[(3,4-dimethylpyrimido [4′,5′:4,5]thieno[2,3-c]pyridazin-8-yl)amino]ethyl]phenyl]cyclobutanol], where the note is “Table 10”, the EC50 came to 839 nM. In addition, the Emax under setting [1] was 59.2%. Regarding `Cc1nnc2sc3c(NCc4cccc(C5(O)CCC5)c4)ncnc3c2c1C` [Compound 102, 1-[3-[[(3,4-dimethylpyrimido [4′,5′:4,5]thieno[2,3-c]pyridazin-8-yl)amino]methyl]phenyl] cyclobutanol], the EC50 (Table 10) is 135 nM. Under setting [1], the Emax worked out at 53.3%. Taken in the same sequence, the figures for `Cc1nnc2sc3c(N4CC(O)(C5CC5)C4)ncnc3c2c1C` [Compound 103, 3-cyclopropyl-1-(3,4-dimethylpyrimido [4′,5′:4,5]thieno[2,3-c]pyridazin-8-yl)azetidin-3-ol] were 122 nM and 80.3%. For `Cc1nnc2sc3c(N4CC(C(N)=O)C4)ncnc3c2c1C` [Compound 104, 1-(3,4-dimethylpyrimido [4′,5′:4,5]thieno[2,3-c]pyridazin-8-yl)azetidine-3-carboxamide], under “Table 10”, the EC50 was 2100 nM. Moreover, the maximum response (Emax) under setting [1] stood at 52.9%. With `Cc1nnc2sc3c(N4CC5(CNC5)C4)ncnc3c2c1C` [Compound 105, 8-(2,6-diazaspiro[3.3]heptan-2-yl)-3,4-dimethyl-pyrimido [4′,5′:4,5]thieno[2,3-c] pyridazine], the Emax is 55.6%. Moreover, the EC50 (Table 10) worked out at 627 nM.

Regarding `Cc1nnc2sc3c(NCc4ccc(C(C)(C)O)nc4)ncnc3c2c1C` [Compound 106, 2-[5-[[(3,4-dimethylpyrimido [4′,5′:4,5]thieno[2,3-c]pyridazin-8-yl)amino]methyl]-2-pyridyl]propan-2-ol], the Emax under setting [1] was determined as 54.1%. On to `Cc1nnc2sc3c(NCc4ccc(C(C)(C)O)cc4F)ncnc3c2c1C` [Compound 107, 2-[4-[[(3,4-dimethylpyrimido [4′,5′:4,5]thieno[2,3-c]pyridazin-8-yl)amino]methyl]-3-fluoro-phenyl]propan-2-ol], for which the EC50 (Table 10) turned out to be 207 nM. For the same compound, under setting [1], the Emax is 78.8%. Regarding `Cc1nnc2sc3c(NCc4ccc(CN5CCOCC5)cc4)ncnc3c2c1C` [Compound 108, 3,4-dimethyl-N-[[4-(morpholinomethyl)phenyl]methyl]pyrimido[4′,5′:4,5] thieno[2,3-c] pyridazin-8-amine hydrochloride], the Emax is 76.8%. For the same compound, the EC50 (Table 10) was 148 nM. For `Cc1nnc2sc3c(NCc4ccc(-c5ccccn5)cc4)ncnc3c2c1C` [Compound 109, 3,4-dimethyl-N-[[4-(2-pyridyl)phenyl]methyl] pyrimido[4′,5′:4,5]thieno [2,3-c]pyridazin-8-amine hydrochloride], under “Table 10”, the EC50 amounted to 748 nM. Besides, the Emax under setting [1] was 79.2%.

Turning to `Cc1nnc2sc3c(NCc4ccc(Oc5ccccn5)cc4)ncnc3c2c1C` [Compound 110, 3,4-dimethyl-N-[[4-(2-pyridyloxy)phenyl]methyl] pyrimido[4′,5′:4,5]thieno [2,3-c]pyridazin-8-amine hydrochloride], the EC50 (Table 10) amounted to 971 nM. Further, the Emax under setting [1] was determined as 59.3%.

Consider `Cc1nnc2sc3c(NCc4ccc(N5CCN(C)CC5)cc4)ncnc3c2c1C` [Compound 111, 3,4-dimethyl-N-[[4-(4-methylpiperazin-1-yl)phenyl]methyl] pyrimido[4′,5′:4,5] thieno[2,3-c] pyridazin-8-amine hydrochloride], for which the EC50 (Table 10) was 126 nM. Besides, the Emax under setting [1] is 70.5%. Regarding `Cc1nnc2sc3c(NCc4ccc(C(C)(C)O)c(F)c4)ncnc3c2c1C` [Compound 112, 2-[4-[[(3,4-dimethylpyrimido [4′,5′:4,5]thieno[2,3-c]pyridazin-8-yl)amino]methyl]-2-fluoro-phenyl]propan-2-ol], where the note is “Table 10”, the EC50 is 255 nM. In addition, the Emax under setting [1] amounted to 74.6%. Take `Cc1nnc2sc3c(NCc4ccc(C(C)(O)C(F)(F)F)cc4)ncnc3c2c1C` (stereo not drawn) [Compound 113, 2-[4-[[(3,4-dimethylpyrimido [4′,5′:4,5]thieno[2,3-c]pyridazin-8-yl)amino]methyl]phenyl]-1,1,1-trifluoro-propan-2-ol]: the Emax under setting [1] was determined as 73.8%.

For `Cc1nnc2sc3c(NCc4ccc(C5(O)CCC5)cc4)ncnc3c2c1C` [Compound 114, 1-[4-[[(3,4-dimethylpyrimido [4′,5′:4,5]thieno[2,3-c]pyridazin-8-yl)amino]methyl]phenyl]cyclobutanol], the EC50 (Table 10) stood at 127 nM. Under setting [1], the Emax amounted to 69.4%. With `CCC(C)(O)c1ccc(CNc2ncnc3c2sc2nnc(C)c(C)c23)c(F)c1` (stereo not drawn) [Compound 115, 2-[4-[[(3,4-dimethylpyrimido [4′,5′:4,5]thieno[2,3-c]pyridazin-8-yl)amino]methyl]-3-fluoro-phenyl]butan-2-ol], where the note is “Table 10”, the EC50 stood at 916 nM. For the same compound, the Emax under setting [1] turned out to be 72.3%.

As for `CCC(C)(O)c1ccc(CNc2ncnc3c2sc2nnc(C)c(C)c23)cc1` (stereo not drawn) [Compound 116, 2-[4-[[(3,4-dimethylpyrimido [4′,5′:4,5]thieno[2,3-c]pyridazin-8-yl)amino]methyl]phenyl]butan-2-ol], the EC50 (Table 10) amounted to 151 nM. For the same compound, the Emax under setting [1] was found to be 50%. Taken in the same sequence, the figures for `Cc1nnc2sc3c(NCc4ccc(CN5CCCC5C(C)(C)O)cc4)ncnc3c2c1C` (stereo not drawn) [Compound 117, 2-[1-[[4-[[(3,4-dimethylpyrimido [4′,5′:4,5]thieno[2,3-c]pyridazin-8-yl)amino]methyl]phenyl]methyl]pyrrolidin-2-yl]propan-2-ol] were 49.1 nM and 108%.

`Cc1nnc2sc3c(NCc4ccc(N5CCNCC5)cc4)ncnc3c2c1C` [Compound 118, 3,4-dimethyl-N-[(4-piperazin-1-ylphenyl)methyl]pyrimido [4′,5′:4,5]thieno[2,3-c] pyridazin-8-amine]: the EC50 (Table 10) was 69 nM. Moreover, the Emax under setting [1] is 101%. `Cc1nnc2sc3c(NC4CC4c4ccc(F)c(F)c4)ncnc3c2c1C` (stereo not drawn) [Compound 119, N-[2-(3,4-difluorophenyl)cyclopropyl]-3,4-dimethyl-pyrimido [4′,5′:4,5]thieno[2,3-c] pyridazin-8-amine]: the EC50 (Table 10) came to 941 nM. Moreover, the Emax under setting [1] was 98.4%. Taken in the same sequence, the figures for `COCCN1CCN(c2ccc(CNc3ncnc4c3sc3nnc(C)c(C)c34)cc2)CC1` [Compound 120, N-[[4-[4-(2-methoxyethyl)piperazin-1-yl]phenyl]methyl]-3,4-dimethyl-pyrimido [4′,5′:4,5]thieno[2,3-c] pyridazin-8-amine] were 226 nM and 100%.

As for `COc1cc(F)c(CNc2ncnc3c2sc2nnc(C)c(C)c23)c(F)c1` [Compound 121, N-[(2,6-difluoro-4-methoxy-phenyl)methyl]-3,4-dimethyl-pyrimido [4′,5′:4,5]thieno[2,3-c] pyridazin-8-amine], the concentration giving a half-maximal response (EC50) (Table 10) is 579 nM. Besides, the Emax under setting [1] was 100%.

As for `Cc1nnc2sc3c(NCc4ccc(C(=O)N5CCCC5)cc4)ncnc3c2c1C` [Compound 122, [4-[[(3,4-dimethylpyrimido [4′,5′:4,5]thieno[2,3-c]pyridazin-8-yl)amino]methyl]phenyl]-pyrrolidin-1-yl-methanone], the EC50 (Table 10) was determined as 482 nM. Besides, the Emax under setting [1] came to 83.7%. Take `Cc1nnc2sc3c(NCc4ccc(C(=O)N5CCOCC5)cc4)ncnc3c2c1C` [Compound 123, [4-[[(3,4-dimethylpyrimido [4′,5′:4,5]thieno[2,3-c]pyridazin-8-yl)amino]methyl]phenyl]-morpholino-methanone]: where the note is “Table 10”, the EC50 stood at 548 nM. For the same compound, under setting [1], the Emax is 87.2%.

Take `Cc1nnc2sc3c(NCc4ccc(C(=O)N5CC6(COC6)C5)cc4)ncnc3c2c1C` [Compound 124, [4-[[(3,4-dimethylpyrimido [4′,5′:4,5]thieno[2,3-c]pyridazin-8-yl)amino]methyl]phenyl]-(2-oxa-6-azaspiro[3.3]heptan-6-yl)methanone]: the EC50 (Table 10) stood at 288 nM. For the same compound, the Emax under setting [1] was determined as 84.8%. With `Cc1nnc2sc3c(NCc4ccc(C(=O)N5CCCCC5)cc4)ncnc3c2c1C` [Compound 125, [4-[[(3,4-dimethylpyrimido [4′,5′:4,5]thieno[2,3-c]pyridazin-8-yl)amino]methyl]phenyl]-(1-piperidyl)methanone], the EC50 (Table 10) was 574 nM. For the same compound, the Emax under setting [1] is 93.1%.
